Test results taken from PMC11514582, “Leveraging the Aggregated Protein Dye YAT2150 for Malaria Chemotherapy” (Pharmaceutics, 2024).
Where two headings read alike, the source gives them in different places.

Columns and labels:
[1] = system: P. berghei oocysts in A. gambiae mosquitoes; experiment: Membrane blood feeding assay (oocyst production in mosquitoes); assay type: in vivo, Plasmodium berghei; details: 10 µM in blood meal; 7 days
Experimental: The Anopheles gambiae mosquito G3 strain was reared under standard conditions at 28 °C and 80% humidity. One to two days before blood feeding, the mosquitoes were fed penicillin (20 U/mL) and streptomycin (20 μg/mL) in the sugar meal (10% sucrose). Mice were infected with the P. berghei mutant Bergreen, which constitutively expresses GFP [18]. Blood was obtained by heart puncture of one mouse, and aliquoted in two tubes that were immediately placed at 37 °C. YAT2150 at a final concentration of 10 µM diluted from a stock solution in dimethyl sulfoxide (DMSO) was added to one tube. The control tube contained the same concentration of DMSO (0.5%). After the feeding carried out in membrane feeders for 60 min, mosquitoes were kept at 19 °C and provided with sugar meal containing the antibiotics as above. Seven days after feeding, the mosquitoes were dissected in PBS, mounted in […]®, and GFP-positive oocysts were counted under an Axioskop 2 microscope (Zeiss, Oberkochen, Germany).

[2] = Cytotoxicity assay in Caco-2 (resazurin); assay type: cell-based; details: human, read-out: Caco-2 inhibition (CC50)
[3] = system: LYWIYY peptide; experiment: Transmission electron microscopy of peptide aggregation; assay type: biochemical, Plasmodium falciparum; details: 100 nM, 25 µM peptide, 24 h after disaggregation
Experimental: To disaggregate peptides before the assay, 1 mg of lyophilized peptide was dissolved in 1 mL of trifluoroacetic acid (TFA), which, after thoroughly mixing, was evaporated under a N2 stream, and 500 µL of 1,1,1,3,3,3-hexafluoro-2-propanol (HFIP; Honeywell Fluka-Thermo Fisher Scientific, Inc.) were added, mixed well, and evaporated as mentioned before (repeated twice to fully remove TFA). Then, 500 µL of HFIP was added, and the solution was divided into aliquots and placed in a desiccator overnight. Afterward, 500 µL of PBS was added to each aliquot to have a final peptide concentration of 25 µM, and, to ensure minimal aggregation (t0), the samples were sonicated for 10 min in a water bath sonicator (FB15053 ultrasonic bath, Thermo Fisher Scientific, Inc.). To study the effect of YAT2150 on peptide aggregation, the compound was added at a final concentration of 100 nM and incubated for 24 h at 37 °C under stirring at 1400 rpm (t24). For disaggregation analysis, a 25 µM peptide aliquot was first pre-aggregated for 24 h (37 °C, 1400 rpm); after this time, YAT2150 was added at a final concentration of 100 nM, and the samples were incubated for an additional 24 h in the same conditions (t48). Control samples in the absence of YAT2150 were included. A 5-μL drop of each sample was deposited onto a carbon-coated copper grid (Ted Pella, Redding, CA, USA) for 1 h. […]

[4] = system: P. falciparum asexual blood stages; details: read-out: in vitro IC50 in P. falciparum cultures, including gametocytes; cited from earlier work
[5] = system: P. falciparum gametocytes; details: cited from earlier work
[6] = molecular target: recombinant human cytochrome P450 enzyme CYP3A4 (Homo sapiens, UniProt P08684); experiment: biochemical
Sequence of recombinant human cytochrome P450 enzyme CYP3A4 (P08684 whole entry): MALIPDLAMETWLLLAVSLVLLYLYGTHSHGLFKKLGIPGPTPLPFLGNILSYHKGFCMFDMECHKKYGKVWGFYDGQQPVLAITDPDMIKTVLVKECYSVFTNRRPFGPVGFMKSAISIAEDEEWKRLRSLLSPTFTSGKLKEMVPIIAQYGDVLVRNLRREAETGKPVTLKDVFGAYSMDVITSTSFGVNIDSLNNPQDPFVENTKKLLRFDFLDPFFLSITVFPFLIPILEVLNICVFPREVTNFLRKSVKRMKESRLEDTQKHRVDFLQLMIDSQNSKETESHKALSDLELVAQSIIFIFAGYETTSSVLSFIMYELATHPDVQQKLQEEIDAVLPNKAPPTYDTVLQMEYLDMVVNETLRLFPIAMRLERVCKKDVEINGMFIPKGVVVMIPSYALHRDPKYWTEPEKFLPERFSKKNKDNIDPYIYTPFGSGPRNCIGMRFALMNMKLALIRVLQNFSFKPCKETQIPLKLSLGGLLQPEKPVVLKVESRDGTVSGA

## CCN(CC)c1ccc(/C=C/c2cc[n+](CCCCCCCCCC[n+]3ccc(/C=C/c4ccc(N(CC)CC)cc4)c(C)c3)cc2C)cc1 [YAT2150]
[1]
  oocyst number/midgut compared to the control: significantly reduced
  prevalence of infection compared to the control: significantly reduced
[2]
  CC50 at 48 h: 18200 ± 2600 nM
[3]
  effect on LYWIYY aggregation (TEM): significantly abolished after 24 h the formation of LYWIYY amyloid fibrils
[4]
  IC50: < 100 nM
[5]; read-out: in vitro IC50 for P. falciparum gametocyte cultures
  IC50: ~100 nM
[5]; stage I–III (early) gametocytes, read-out: IC50 in P. falciparum stage I–III gametocytes
  IC50: 95 ± 2 nM
[5]; stage V gametocytes, read-out: IC50 in P. falciparum stage V gametocytes (converted)
  IC50: 103 nM
[6]
  IC50: 1000 nM
